The results in this text go back to ChEMBL document CHEMBL4020755, “Design, synthesis, and biological evaluation of deuterated apalutamide with improved pharmacokinetic profiles” (Bioorg Med Chem Lett, 2017).

In general, Tmax refers to the time at which the peak concentration occurs. What is called Cmax is the peak of the concentration-time curve. In general, AUC(0-t) refers to the area under the concentration-time curve up to a stated or last time point. As a reminder, the half-life is the time in which the quantity being followed falls by half. Higher therefore signals slow loss. As usually defined, the AUC(0-inf) is the area under the concentration-time curve extrapolated to infinity. The low end stands for less exposure, the high end for more exposure. Broadly, the MRT is the average time that molecules of a dose stay in the body.

Common to all, as to format: ADME, organism-based
Common to all, as to conditions: in vivo, po

A short description of data set [1]: Tmax in Balb/c mouse at 10 mg/kg administered orally measured up to 24 hrs by LC-MS/MS analysis.
A short description of data set [2]: Cmax in Balb/c mouse at 10 mg/kg administered orally measured up to 24 hrs by LC-MS/MS analysis. On the set-up: dose 10 mg/kg, route oral.
A short description of data set [3]: AUC (0 to 24 hrs) in Balb/c mouse at 10 mg/kg administered orally measured up to 24 hrs by LC-MS/MS analysis. On the set-up: dose 10 mg/kg, time < 24 hr, route oral.
Data set [4] is described as follows: Half life in Balb/c mouse at 10 mg/kg administered orally measured up to 24 hrs by LC-MS/MS analysis.
Data set [5] can be described thus: Cmax in Sprague-Dawley rat at 10 mg/kg administered orally measured up to 24 hrs by LC-MS/MS analysis. Also noted: dose 10 mg/kg, route oral.
Data set [6] can be described thus: AUC (0 to infinity) in Sprague-Dawley rat at 10 mg/kg administered orally measured up to 24 hrs by LC-MS/MS analysis. On the set-up: dose 10 mg/kg, route oral, time infinity.
Data set [7] is described as follows: Mean residence time in Sprague-Dawley rat 10 mg/kg administered orally measured up to 24 hrs by LC-MS/MS analysis.
Data set [8] is described as follows: Half life in Sprague-Dawley rat 10 mg/kg administered orally measured up to 24 hrs by LC-MS/MS analysis.

Take `[2H]C1([2H])CC([2H])([2H])C12C(=O)N(c1cnc(C#N)c(C(F)(F)F)c1)C(=S)N2c1ccc(C(=O)NC)c(F)c1`: the Tmax in data set [1] was 6 h. The compound further yielded a maximum concentration (Cmax) in data set [2] of 2170 ng/mL. In data set [3], this compound yielded an AUC(0-t) at 24 h of 41100 ng·h/mL. The half-life in data set [4] is 1940 min.
Consider `[2H]C([2H])([2H])NC(=O)c1ccc(N2C(=S)N(c3cnc(C#N)c(C(F)(F)F)c3)C(=O)C23CCC3)cc1F`, for which, in data set [1], the time of peak concentration (Tmax) stood at 4 h. In addition, the Cmax amounted to 4480 ng/mL in data set [2] and 1700 ng/mL in data set [5]. In data set [3], the AUC(0-t) at 24 h turned out to be 87800 ng·h/mL. The results for the half-life in data set [4] and in data set [8] were 1940 min and 534 min, respectively. The compound further yielded an AUC(0-inf) in data set [6] of 28700 ng·h/mL. Moreover, the mean residence time (MRT) in data set [7] stood at 13 h.
In the case of `[2H]c1cc(C(=O)NC([2H])([2H])[2H])c(F)c([2H])c1N1C(=S)N(c2cnc(C#N)c(C(F)(F)F)c2)C(=O)C12CCC2`, in data set [1], the Tmax is 4 h. In data set [2], this compound showed a Cmax of 3940 ng/mL. The AUC(0-t) at 24 h in data set [3] was 80600 ng·h/mL. The half-life in data set [4] was 3290 min.
For the compound `CNC(=O)c1ccc(N2C(=S)N(c3cnc(C#N)c(C(F)(F)F)c3)C(=O)C23CCC3)cc1F` [APALUTAMIDE], in data set [1], the time of peak concentration (Tmax) amounted to 6 h. For the same compound, the peak concentration (Cmax) was 3320 ng/mL in data set [2] and 946 ng/mL in data set [5]. The same compound displayed an AUC(0-t) at 24 h in data set [3] of 61600 ng·h/mL. The half-life in data set [4] is 354 min; in data set [8] it was 444 min. The same compound yielded an AUC(0-inf) in data set [6] of 14800 ng·h/mL. Besides, the MRT in data set [7] amounted to 10.7 h.
On to `[2H]c1cc(C(=O)NC)c(F)c([2H])c1N1C(=S)N(c2cnc(C#N)c(C(F)(F)F)c2)C(=O)C12CCC2`, for which the time of peak concentration (Tmax) in data set [1] was 6 h. This compound had a peak concentration (Cmax) in data set [2] of 3480 ng/mL. Also, the AUC(0-t) at 24 h in data set [3] turned out to be 63800 ng·h/mL. Further, the half-life in data set [4] was 396 min.
